The results in this text go back to patent publication US20230391760A1, “HETEROCYCLIC GLP-1 AGONISTS” (Gasherbrum Bio, Inc., priority 2020, published 2023).

The assay has as its target GLP-1 Receptor (Homo sapiens, UniProt P43220). Nature of the assay: GLP-1R agonist cAMP stimulation assay (HEK293/GLP1R/CRE-LUC cells, cAMP dynamic 2 Kit). The assay is classed as cell-based. Particulars: HEK293/CRE-Luc cell line stably expressing the GLP-1 Receptor, 30 min at 37° C. Put shortly: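 HEK293 cells stably expressing human GLP-1R with CRE-luciferase, 1000 cells/well in DPBS with 0.5 mM IBMX and 0.1% BSA, treated with compound in 1/2-log serial dilution for 30 min at 37 °C. cAMP then detected by HTRF (cAMP-d2 plus anti-cAMP cryptate), 1 h at room temperature in the dark.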

GLP-1 Receptor, sequence (P43220 24-463, species assumed): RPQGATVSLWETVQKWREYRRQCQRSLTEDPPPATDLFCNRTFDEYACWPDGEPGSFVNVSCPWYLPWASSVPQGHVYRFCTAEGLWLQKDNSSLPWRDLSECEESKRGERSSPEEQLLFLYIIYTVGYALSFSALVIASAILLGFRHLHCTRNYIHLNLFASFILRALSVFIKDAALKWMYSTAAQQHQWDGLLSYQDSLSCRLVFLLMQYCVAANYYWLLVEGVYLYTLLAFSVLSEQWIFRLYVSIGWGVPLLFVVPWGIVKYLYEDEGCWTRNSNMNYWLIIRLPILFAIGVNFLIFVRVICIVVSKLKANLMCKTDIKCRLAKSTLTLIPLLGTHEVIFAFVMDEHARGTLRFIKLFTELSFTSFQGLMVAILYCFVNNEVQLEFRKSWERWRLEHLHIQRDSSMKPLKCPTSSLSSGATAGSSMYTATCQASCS

With `C[C@H]1CN(c2nc(OCc3ccc(Cl)cc3F)ccc2F)CCN1Cc1nc2cc(-c3nnc(C(F)(F)F)[nH]3)ncc2n1C[C@@H]1CCO1` [Compound 525a, (2S)-4-{6-[(4-chloro-2-fluorophenyl)methoxy]-3-fluoropyridin-2-yl}-2-methyl-1-[(3-{[(2S)-oxetan-2-yl]methyl}-6-[5-(trifluoromethyl)-4H-1,2,4-triazol-3-yl]-3H-imidazo[4,5-c]pyridin-2-yl)methyl]piperazine], the EC50 – broadly, the concentration needed to bring the measured effect to its halfway point – is 0.026 nM.

Consider `Cc1ncc(-c2ccc3c(c2)nc(CN2CCC(c4cccc5c4OC(C)(c4ccc(Cl)cc4F)O5)CC2)n3C[C@@H]2CCO2)cn1` (stereo partly drawn) [Compound 237a, 2-((4-(2-(4-chloro-2-fluorophenyl)-2-methylbenzo[d][1,3]dioxol-4-yl)piperidin-1-yl)methyl)-5-(2-methylpyrimidin-5-yl)-1-(((S)-oxetan-2-yl)methyl)-1H-benzo[d]imidazole], for which the midpoint of the response, the EC50, lay at 9.1 nM. Compared with the last compound, the EC50 is about 350-fold higher.

The compound `C[C@]1(c2ccc(Cl)cn2)Oc2cccc(C3CCN(Cc4nc5cc(-c6nnc(C#N)[nH]6)ncc5n4C[C@@H]4CCO4)CC3)c2O1` [Compound 481a, 5-[2-({4-[(2S)-2-(5-chloropyridin-2-yl)-2-methyl-2H-1,3-benzodioxol-4-yl]piperidin-1-yl}methyl)-3-{[(2S)-oxetan-2-yl]methyl}-3H-imidazo[4,5-c]pyridin-6-yl]-4H-1,2,4-triazole-3-carbonitrile] came in with an EC50 of 0.0048 nM.

`O=c1[nH]c(-c2ccc3c(c2)nc(CC2CC=C(c4nc(OCc5ccc(Cl)cc5F)ncc4F)CC2)n3C[C@@H]2CCO2)no1` (stereo partly drawn) [Compound 242a, 3-(2-((4-(2-((4-chloro-2-fluorobenzyl)oxy)-5-fluoropyrimidin-4-yl)cyclohex-3-en-1-yl)methyl)-1-(((S)-oxetan-2-yl)methyl)-1H-benzo[d]imidazol-5-yl)-1,2,4-oxadiazol-5(4H)-one] gave an EC50 of 0.36 nM.

The compound `C[C@H]1CN(c2ccc(F)c(OCc3ccc(C#N)cc3F)c2)CCN1Cc1nc2cc(-c3nnc(C(F)(F)F)[nH]3)nnc2n1C[C@@H]1CCO1` [Compound 522a, 3-fluoro-4-({2-fluoro-5-[(3S)-3-methyl-4-[(7-{[(2S)-oxetan-2-yl]methyl}-3-[5-(trifluoromethyl)-4H-1,2,4-triazol-3-yl]-7H-imidazo[4,5-c]pyridazin-6-yl)methyl]piperazin-1-yl]phenoxy}methyl)benzonitrile] showed an EC50 of 0.46 nM.

In turn, `C[C@]1(c2ccc(Cl)cc2F)Oc2cccc(C3CCN(Cc4nc5cc(-c6nnc(C(F)(F)F)[nH]6)nnc5n4C[C@H]4CCOC4)CC3)c2O1` [Compound 475a, 4-[(2S)-2-(4-chloro-2-fluorophenyl)-2-methyl-2H-1,3-benzodioxol-4-yl]-1-[(7-{[(3R)-oxolan-3-yl]methyl}-3-[5-(trifluoromethyl)-4H-1,2,4-triazol-3-yl]-7H-imidazo[4,5-c]pyridazin-6-yl)methyl]piperidine] registered an EC50 of 0.41 nM.

Compound `O=C(O)c1c[nH]nc1-c1ccc2c(c1)nc(CN1CCC(c3cccc(OCc4ccc(Cl)cc4F)n3)CC1)n2C[C@@H]1CCO1` [Compound 214a, 3-{2-[(4-{6-[(4-chloro-2-fluorophenyl)methoxy]pyridin-2-yl}piperidin-1-yl)methyl]-1-{[(2S)-oxetan-2-yl]methyl}-1H-1,3-benzodiazol-5-yl}-1H-pyrazole-4-carboxylic acid] gave an EC50 of 4.2 nM.

`C[C@]1(c2ccc(Cl)cn2)Oc2cccc(C3CCN(Cc4nc5cc(-c6nnc(C(F)(F)F)[nH]6)nnc5n4C[C@@H]4CCO4)CC3)c2O1` [Compound 462a, 5-chloro-2-[(2S)-2-methyl-4-{1-[(7-{[(2S)-oxetan-2-yl]methyl}-3-[5-(trifluoromethyl)-4H-1,2,4-triazol-3-yl]-7H-imidazo[4,5-c]pyridazin-6-yl)methyl]piperidin-4-yl}-2H-1,3-benzodioxol-2-yl]pyridine]: the EC50 turned out to be 0.045 nM.

The compound `Fc1cc(Cl)ccc1COc1cccc(C2CCN(Cc3nc4cc(/C=C/c5cccnc5)ccc4n3C[C@@H]3CCO3)CC2)n1` [Compound 217a, 2-[(4-{6-[(4-chloro-2-fluorophenyl)methoxy]pyridin-2-yl}piperidin-1-yl)methyl]-1-{[(2S)-oxetan-2-yl]methyl}-5-[(E)-2-(pyridin-3-yl)ethenyl]-1H-1,3-benzodiazole] gave an EC50 of 4.6 nM.

As to `O=c1[nH]c(-c2cc3nc(CN4CCC(c5ccc(F)c(OCc6ccc(Cl)cc6F)n5)CC4)n(C[C@@H]4CCO4)c3cn2)no1` [Compound 438a, 3-{2-[(4-{6-[(4-chloro-2-fluorophenyl)methoxy]-5-fluoropyridin-2-yl}piperidin-1-yl)methyl]-3-{[(2S)-oxetan-2-yl]methyl}-3H-imidazo[4,5-c]pyridin-6-yl}-4,5-dihydro-1,2,4-oxadiazol-5-one], the response was half-maximal at 0.026 nM (EC50). Against the preceding compound, the EC50 is about 180-fold lower.

In the case of `CC1(c2ccc(F)cc2Cl)Oc2cccc(C3CCN(Cc4nc5cc(-c6nnc(C(F)(F)F)[nH]6)ccc5n4C[C@@H]4CCO4)CC3)c2O1` (stereo partly drawn) [Compound 404a, 2-({4-[2-(2-chloro-4-fluorophenyl)-2-methyl-2H-1,3-benzodioxol-4-yl]piperidin-1-yl}methyl)-1-{[(2S)-oxetan-2-yl]methyl}-5-[5-(trifluoromethyl)-4H-1,2,4-triazol-3-yl]-1H-1,3-benzodiazole], the EC50 worked out at 0.045 nM.

In turn, `CC1(c2ccc(Cl)cc2F)Oc2cccc(C3CCN(Cc4nc5cc(-c6noc(=O)[nH]6)cnc5n4C[C@H]4CCOC4)CC3)c2O1` (stereo partly drawn) [Compound 400a, 3-[2-({4-[2-(4-chloro-2-fluorophenyl)-2-methyl-2H-1,3-benzodioxol-4-yl]piperidin-1-yl}methyl)-3-{[(3R)-oxolan-3-yl]methyl}-3H-imidazo[4,5-b]pyridin-6-yl]-4,5-dihydro-1,2,4-oxadiazol-5-one] registered an EC50 of 3.7 nM.

In turn, `CC1(c2ccc(Cl)cn2)Oc2c(F)ccc(C3CCN(Cc4nc5cc(-c6nnc(C(F)(F)F)[nH]6)nnc5n4C[C@@H]4CCO4)CC3)c2O1` (stereo partly drawn) [Compound 524a, 5-chloro-2-[4-fluoro-2-methyl-7-{1-[(7-{[(2S)-oxetan-2-yl]methyl}-3-[5-(trifluoromethyl)-4H-1,2,4-triazol-3-yl]-7H-imidazo[4,5-c]pyridazin-6-yl)methyl]piperidin-4-yl}-2H-1,3-benzodioxol-2-yl]pyridine] had an EC50 of 0.45 nM.

As for `CC1(c2ccc(F)cc2)Oc2cccc(C3CCN(Cc4nc5cc(-c6nnc(C(F)(F)F)[nH]6)ccc5n4C[C@@H]4CCO4)CC3)c2O1` (stereo partly drawn) [Compound 258a, 2-({4-[2-(4-fluorophenyl)-2-methyl-2H-1,3-benzodioxol-4-yl]piperidin-1-yl}methyl)-1-{[(2S)-oxetan-2-yl]methyl}-5-[5-(trifluoromethyl)-4H-1,2,4-triazol-3-yl]-1H-1,3-benzodiazole], the EC50 turned out to be 0.16 nM.

Compound `CC1(c2ccc(Cl)cc2F)Oc2cccc(C3CCN(Cc4nc5cc(-c6cn(CCC(=O)O)nn6)ccc5n4C[C@@H]4CCO4)CC3)c2O1` (stereo partly drawn) [Compound 251a, 3-{4-[2-({4-[2-(4-chloro-2-fluorophenyl)-2-methyl-2H-1,3-benzodioxol-4-yl]piperidin-1-yl}methyl)-1-{[(2S)-oxetan-2-yl]methyl}-1H-1,3-benzodiazol-5-yl]-1H-1,2,3-triazol-1-yl}propanoic acid] came in with an EC50 of 0.11 nM. The EC50 values of the last two compounds are within 1.5-fold of each other.
